We go through four compounds from patent US10577315B2, “Compositions and methods for treatment of prostate carcinoma” (Pellficure Pharmaceuticals, Inc., priority 2014, dated 2020).

Assay type in all cases: cell-based
In test [1] the test system is human breast cancer SKBR-3 cells. Briefly: Dose response of 1,4-naphthoquinone analogs in human breast cancer cells SKBR-3 (WST-1, 24 h). How it is done: (§1) 100 microliters of human breast cancer SKBR-3 cells were plated at a density of 8000 cells/well in 96-well plates (triplicates) in growing medium containing 10% Fetal Bovine Serum, penicillin/streptomycin, and glutamine. The next day, increasing concentrations of a 1,4-naphthoquinone analog (diluted from 10 mM DMSO stock solutions) were added. DMSO used as solvent for all analogs, was kept constant through the 96-well plates. The control consisted of DMSO alone. The cells were subsequently incubated for 24 hours at 37° C. and 5% CO2 in normal cell growth conditions. Cell viability was assessed by adding 9 μL/well of WST-1 reagent (Clontech), which measured mitochondrial activity of live cells. […] The incubation time was 3 hours at 37° C. Optical density of the cell samples was measured at 460 nm, by using plate reader Spectra Max 250 (Molecular Devices). The drug was determined to be cytotoxic when OD values show an inverse correlation with analog concentrations.
A general note: Tetrazolium dyes change colour on reduction, which living cells bring about.

For test [2], the system named is human fibrosarcoma HT1080 cells. Briefly: Dose response of 1,4-naphthoquinone analogs in human fibrosarcoma cells HT1080 (WST-1, 24 h). As to the method:
as §1, with “fibrosarcoma HT1080” for “breast cancer SKBR-3”

Test [3] concerns PTEN-P2/GFP prostate cancer cells. Briefly: Effect of 1,4-naphthoquinone analogs on PTEN-P2/GFP cell proliferation (WST-1 cell viability, 24 h). Particulars: Mus musculus, WST-1, medium with 10% FBS and DHT, read-out: PTEN-P2/GFP cell proliferation, percent of control. As to the method: Cells are grown in phenol red-free DMEM medium containing 10% FBS, 2 mM L-glutamine, 100 U/ml penicillin/100 μg/ml streptomycin, insulin-selenium-transferrin (5 μg/ml insulin), and DHT 10^−8M final. Androgen withdrawal is achieved by not adding DHT to the medium. Cells are maintained in a humidified incubator at 37° C. and 5% CO2. G418 (100 μg/ml) is added to maintain stable expression of H2B-GFP.
as §1, with “PTEN-P2/GFP prostate” for “human breast”, “cancer” for “cancer SKBR-3”, “Serum” for “Serum, penicillin/streptomycin,”, “DHT.” for “glutamine.”, “concentrations. The results are shown in TABLES 3.1-3.4, FIGS. 2A-2E, and FIGS. 3A-3D.” for “concentrations.”

Turning to `O=C1C=C(Oc2ccccc2)C(=O)c2ccccc21` [Analog F01, 2-phenoxy-1,4-naphthoquinone], the “human SKBR-3 cell proliferation, percent of control” value in test [1] (1.2 μM) is reported as 99.47% of control; in test [1] (2.5 μM) it was 105.05% of control; in test [1] (5 μM), 85.33% of control; in test [1] (7.5 μM) it was 61.15% of control; in test [1] (10 μM), 4.30% of control; in test [1] (15 μM) it was 1.90% of control. In test [1] (20 μM), the “human SKBR-3 cell proliferation, percent of control” value is 2.19% of control. In addition, the “proliferation of human fibrosarcoma HT1080 cells, percent of control” value is 85.21% of control in test [2] (1.2 μM); 81.88% of control in test [2] (2.5 μM); 66.22% of control in test [2] (5 μM); 73.66% of control in test [2] (7.5 μM); 69.05% of control in test [2] (10 μM); 41.07% of control in test [2] (15 μM). Besides, in test [2] (20 μM), the “proliferation of human fibrosarcoma HT1080 cells, percent of control” value is recorded as 18.29% of control. In test [3], the activity at 2 µM came out at 91.7%. Further, in test [3], the activity at 3 µM was determined as 77.9%. In test [3], the activity at 4 µM stood at 63.4%. Also, the activity at 5 µM in test [3] came to 43.1%. Moreover, the activity at 6 µM in test [3] was found to be 30.9%. Moreover, the activity at 7 µM in test [3] was 24.1%. Besides, the activity at 10 µM in test [3] was 13.2%. The activity at 15 µM in test [3] is 9.77%. Further, the activity at 25 µM in test [3] is 9.86%.
Consider `O=C1C=C(Oc2c(F)c(F)c(F)c(F)c2F)C(=O)c2ccccc21` [Analog F02, 2-(2,3,4,5,6-pentafluorophenoxy)-1,4-naphthoquinone], for which the “human SKBR-3 cell proliferation, percent of control” value is 107.66% of control in test [1] (1.2 μM); 116.47% of control in test [1] (2.5 μM); 107.37% of control in test [1] (5 μM); 94.47% of control in test [1] (7.5 μM); 75.45% of control in test [1] (10 μM); 35.60% of control in test [1] (15 μM). Further, the “human SKBR-3 cell proliferation, percent of control” value in test [1] (20 μM) is 3.02% of control. In addition, the “proliferation of human fibrosarcoma HT1080 cells, percent of control” value in test [2] (1.2 μM) was 84.28% of control; in test [2] (2.5 μM) it was 82.46% of control; in test [2] (5 μM) it was 82.96% of control; in test [2] (7.5 μM), 76.72% of control; in test [2] (10 μM), 74.71% of control; in test [2] (15 μM), 65.17% of control. The “proliferation of human fibrosarcoma HT1080 cells, percent of control” value in test [2] (20 μM) is 63.04% of control. Moreover, the activity at 2 µM in test [3] was 97.9%. In test [3], the activity at 3 µM is 94.8%. The activity at 4 µM in test [3] came to 93.3%. Further, the activity at 5 µM in test [3] turned out to be 90.3%. Also, in test [3], the activity at 6 µM was 82.6%. Further, in test [3], the activity at 7 µM came out at 74.3%. Further, the activity at 10 µM in test [3] was 47.6%. Also, the activity at 15 µM in test [3] turned out to be 28.7%. Also, the activity at 25 µM in test [3] was determined as 12.3%.
In the case of `CC(=O)Nc1ccc(OC2=CC(=O)c3ccccc3C2=O)cc1` [Analog F03, 2-(4-acetamidophenoxy)-1,4-naphthoquinone], the “human SKBR-3 cell proliferation, percent of control” value in test [1] (1.2 μM) is 88.89% of control; in test [1] (2.5 μM), 87.44% of control; in test [1] (5 μM) it was 64.41% of control; in test [1] (7.5 μM) it was 36.88% of control; in test [1] (10 μM), 7.32% of control; in test [1] (15 μM), 1.24% of control. The “human SKBR-3 cell proliferation, percent of control” value in test [1] (20 μM) was 1.57% of control. In addition, the “proliferation of human fibrosarcoma HT1080 cells, percent of control” value in test [2] (1.2 μM) is 81.33% of control; in test [2] (2.5 μM), 85.67% of control; in test [2] (5 μM) it was 74.59% of control; in test [2] (7.5 μM) it was 72.11% of control; in test [2] (10 μM) it was 75.09% of control; in test [2] (15 μM) it was 55.37% of control. The “proliferation of human fibrosarcoma HT1080 cells, percent of control” value in test [2] (20 μM) was 38.21% of control. Also, the activity at 2 µM in test [3] is 97.8%. Besides, the activity at 3 µM in test [3] was found to be 97.1%. For the same compound, the activity at 4 µM in test [3] was 97.1%. Moreover, in test [3], the activity at 5 µM is 97.1%. In addition, the activity at 6 µM in test [3] was 85%. Moreover, the activity at 7 µM in test [3] was 76.2%. In test [3], the activity at 10 µM was 43%. Also, the activity at 15 µM in test [3] amounted to 20%. For the same compound, in test [3], the activity at 25 µM was determined as 9.61%.
For `O=C1C=C(Oc2c(F)cc(F)cc2F)C(=O)c2ccccc21` [Analog F04, 2-(2,4,6-trifluorophenoxy)-1,4-naphthoquinone], the “human SKBR-3 cell proliferation, percent of control” value in test [1] (1.2 μM) was 86.74% of control; in test [1] (2.5 μM) it was 83.72% of control; in test [1] (5 μM), 74.38% of control; in test [1] (7.5 μM) it was 65.90% of control; in test [1] (10 μM), 7.52% of control; in test [1] (15 μM), 1.20% of control. Also, in test [1] (20 μM), the “human SKBR-3 cell proliferation, percent of control” value was 1.90% of control. Also, the “proliferation of human fibrosarcoma HT1080 cells, percent of control” value in test [2] (1.2 μM) was 87.77% of control; in test [2] (2.5 μM) it was 81.64% of control; in test [2] (5 μM) it was 78.43% of control; in test [2] (7.5 μM), 84.86% of control; in test [2] (10 μM) it was 76.41% of control; in test [2] (15 μM), 69.17% of control. Moreover, the “proliferation of human fibrosarcoma HT1080 cells, percent of control” value in test [2] (20 μM) was 63.51% of control. In addition, the activity at 1.2 µM in test [3] (1.2 μM) is 101%. Moreover, the activity at 2.5 µM in test [3] (2.5 μM) was 101%. Further, the activity at 5 µM in test [3] is 83.3%. Also, the activity at 7.5 µM in test [3] (7.5 μM) came to 17.6%. Besides, in test [3], the activity at 10 µM turned out to be 2.09%. Moreover, the activity at 15 µM in test [3] was found to be 1.47%. In addition, the activity at 20 µM in test [3] (20 μM) stood at 2.64%.
